Results on four compounds are retold here after patent publication US20110081297A1, “Novel Substituted Pyrazoles, 1,2,4-Oxadiazoles, and 1,3,4-Oxadiazoles” (priority 2008, published 2011).

Chain of human AD brain tissue homogenate (P05067 whole entry): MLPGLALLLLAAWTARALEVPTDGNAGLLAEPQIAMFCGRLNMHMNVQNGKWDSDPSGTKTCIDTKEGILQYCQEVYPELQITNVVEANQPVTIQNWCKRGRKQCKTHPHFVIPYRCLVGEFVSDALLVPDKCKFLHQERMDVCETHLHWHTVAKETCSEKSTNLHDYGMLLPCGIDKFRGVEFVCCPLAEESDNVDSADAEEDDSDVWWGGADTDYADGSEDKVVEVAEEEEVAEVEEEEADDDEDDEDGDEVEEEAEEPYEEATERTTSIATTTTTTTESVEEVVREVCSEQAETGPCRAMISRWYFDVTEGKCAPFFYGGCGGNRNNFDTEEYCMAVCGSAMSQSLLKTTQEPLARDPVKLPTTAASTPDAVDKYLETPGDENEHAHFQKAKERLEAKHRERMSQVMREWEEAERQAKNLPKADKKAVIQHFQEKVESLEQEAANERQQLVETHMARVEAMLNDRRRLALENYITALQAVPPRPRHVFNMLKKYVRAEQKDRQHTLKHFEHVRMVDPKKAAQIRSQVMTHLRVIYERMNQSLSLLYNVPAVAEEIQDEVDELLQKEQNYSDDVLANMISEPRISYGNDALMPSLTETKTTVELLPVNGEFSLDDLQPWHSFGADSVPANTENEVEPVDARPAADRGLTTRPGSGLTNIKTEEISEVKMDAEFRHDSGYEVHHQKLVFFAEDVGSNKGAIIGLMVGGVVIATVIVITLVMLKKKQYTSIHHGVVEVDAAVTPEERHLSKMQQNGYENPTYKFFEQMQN

This assay addresses human AD brain tissue homogenate (Homo sapiens, UniProt P05067). Nature of the assay: Tissue homogenate binding assay (competition with [3H]-DMAB). The conditions noted are these: human AD brain (frontal cortex) homogenate, 1.5 nM [3H]-DMAB radioligand, room temperature, 90 minutes. As to the method:
PET radiotracer candidate compounds were then selected based on their high affinity competition with [^3H]-DMAB in binding to AD brain homogenates. These PET radiotracer candidate compounds were tested to determine if they were effective PgP substrates. Those PET radiotracer candidate compounds with little PgP substrate activity were radiolabeled with [^3H] or [^18F] and tested for binding affinity to human AD brain homogenates as well as binding to human non-AD brain homogenates and in autoradiographic studies using human AD and non-AD brain slices. Candidate radioligands were selected based on their strong binding affinity for human AD brain homogenates, and minimal binding to non-AD control homogenates. A low fraction of non-displaceable binding was also an important criterion. Minimization of white matter binding was an important criterion.
Postmortem frozen human brain samples from donors with clinical diagnosis of Alzheimer's diseases (AD) or normal control subjects (non-AD) were purchased from Analytical Biological Services Inc., at 701-4 Cornell Business Park, Wilmington, Del. 19801. Brain homogenates of frontal cortex were prepared, divided into aliquots and stored at −70° C. prior to use.
[^3H]-DMAB was synthesized at a specific activity of ˜80 Ci/mmol. The final concentration of radioligand for tissue homogenate binding assay was 1.5 nM. Brain homogenates were diluted with phosphate buffered saline (PBS) to 0.4 mg/mL from original 10 mg/mL volume and 200 μl was used in assay for a final concentration of […]. Unlabeled test compounds were dissolved in dimethylsulfoxide (DMSO) at 1 mM. Dilution of test compound to various concentrations was made with PBS containing 2% DMSO. Total binding was defined in the absence of competing compound, and non-displaceable binding was determined in the presence of 1 μM unlabeled self block. Compound dilutions (10×) were added into the assay tube (25 μL each/per tube, separately) containing 200 μL brain homogenate dilution, and the tubes were pre-incubated at room temperature for 10 minutes. Then radioligand dilutions (10×) were added into the assay tube (25 μl each/per tube, separately) to a final volume of 250 μL per tube. Incubation was carried out at room temperature (25° C.) for 90 minutes, and then the assay samples were filtered onto GF/C filters using Skatron 12 well harvester, washing on setting 5-5-5 (˜3×2 ml) ice cold buffer (PBS, pH 7.4). GF/C filter papers for the Skatron harvester were pre-soaked in 0.1% BSA for 1 hour at room temperature before use. Filters were punched into scintillation vials and counted in 2 mL Ultima Gold on Perkin Elmer Tri-Carb 2900TR for 1 minute. The data analysis was done with Prism software. […]
The compound `COc1ccc(-c2noc(-c3cnc(F)c(C)c3)n2)cc1` showed an IC50 of 77 nM.

Compound `COc1ccc(-c2noc(-c3ccc4cc[nH]c4c3)n2)cc1` registered an IC50 of 10 nM.

The compound `COc1ccc(-c2cc(-c3ccc(N(C)C)cc3)n[nH]2)cc1` had an IC50 of 10 nM.

In the case of `CN(C)c1ccc(-c2cc(-c3cnc4[nH]ccc4c3)n[nH]2)cc1`, the IC50 was 50 nM.

A word on the IC50: it is the concentration at which inhibition is half-maximal. A higher IC50 goes with lower potency.
